Results: patent publication US11241501B2, “Anticancer prodrug for overcoming drug resistance” (Korea University Research and Business Foundation, priority 2018, dated 2022)

What was measured:
MCF7 cell line = assay: Cell viability, C1 versus Dox+DCA; assay type: cell-based, human
Procedure: (§1) Data represent the mean±SD. *p<0.05. […] Cells were seeded in 24 well plates at 2×10^5 cells per well and were allowed to adhere for at least 24 h, growth medium was replaced with medium containing C1 or its analogues at the indicated concentrations and times, and cell viability was assessed via the WST-1 assay (Roche Diagnostics, Laval, QC, Canada). For the colony formation assay, cells were seeded in 6-well plates. After 24 h, cells were maintained in the presence of each probe or vehicle dimethyl sulfoxide (DMSO) for 10 days. Colonies were fixed with methanol for 10 min and stained with 0.05% crystal violet in 20% ethanol.

MCF7/Dox cells [1] = assay: Cell viability, C1 versus Dox+DCA; assay type: cell-based, human; details: resistant MCF7/Dox cells
Procedure: as §1

MCF7/Dox cells [2] = assay: Colony formation assay; assay type: cell-based, human; details: 10 days
Procedure: (§2) Fluorescence intensities were measured with SpectraMAX 13. Data represent means±SD. **p<0.01. […] Data represent means±SD. **[…]. […] Data represent the mean±SD (n=3 experimental replicates). *p<0.05, **p<0.01. […] MCF7/Dox cells were treated with C1 or C3 as indicated, and the cytosolic (C) and mitochondrial (M) fractions were subjected to immunoblot assay. COX-IV and tubulin were used as markers for the mitochondria and cytosol fractions, respectively.
Cells were seeded in 24 well plates at 2×10^5 cells per well and were allowed to adhere for at least 24 h, growth medium was replaced with medium containing C1 or its analogues at the indicated concentrations and times, and cell viability was assessed via the WST-1 assay (Roche Diagnostics, Laval, QC, Canada). For the colony formation assay, cells were seeded in 6-well plates. After 24 h, cells were maintained in the presence of each probe or vehicle dimethyl sulfoxide (DMSO) for 10 days. Colonies were fixed with methanol for 10 min and stained with 0.05% crystal violet in 20% ethanol.

MCF7/Dox cells [3] = assay: Intracellular ATP, lactate levels and glucose uptake; assay type: cell-based, human
Procedure: as §2
Intracellular ATP levels were measured using an ATP Bioluminescence Assay Kit HSII (Roche Applied Science). Briefly, after the indicated treatment times for the test compound in question, cells were lysed with boiling lysis reagent and the supernatant was collected. […] of luciferin/Luciferase reagents. Luminescence was measured using Luminoskan Ascent (Thermo Scientific). Results were normalized to cell number. Intracellular L(+)-lactate level was measured using a lactate assay kit (BioVision). Cells were suspended with lactate assay buffer and incubated in the presence of the reaction mixture for 30 min. The lactate was quantified by measuring the absorbance at 570 nm using a Bio-Rad 680 microplate reader (Bio-Rad). For the glucose uptake assay, 2×10^5 cells were incubated in the presence of 20 mmol/L of 2-NBDG (2-[N-(7-nitrobenz-2-oxa-1,3-diazol-4-yl)amino]-2-deoxy-d-glucose; N13195; Invitrogen) for 2 h. The cells were re-suspended in cold growth medium and stained with propidium iodide. Samples were maintained on ice and analyzed via flow cytometry (Becton Dickinson).

MCF7 and MCF7/Dox tumors = assay: In vivo and ex vivo fluorescent imaging; details: mice bearing MCF7 and MCF7/Dox tumors
Procedure: To assess tumor target specificity and the organ distribution of C1 in vivo and ex vivo, MCF7 and MCF7/Dox cells were injected subcutaneously into mice. When tumor growth reached a detectable size, the mice were treated with C1 (15 mg/kg/d), doxorubicin (2 mg/Kg/d)+DCA (50 mg/Kg/d), or vehicle (DMSO) by i.v. injection once every 4 days for 30 days. After 15 days of treatment, the animals were euthanized via CO2 asphyxiation. The xenograft tumors were excised and photographed. In vivo fluorescence images of the mice were recorded and quantified using a Maestro2 instrument (excitation and emission wavelengths: 500 and 650 nm, respectively). The fluorescence images and auto-fluorescence were then deconvoluted using the software provided with the instrument (Maestro software ver.2.4, CRi, Woburn, Mass., USA) using the multiexcitation spectral analysis function.

[4] = system: cancer cells (A549 and HepG2), normal cells (NHDF and IMR90); assay: Cellular uptake of compounds in normal and cancer cells; assay type: cell-based, human; details: 5 μM, 6 h, A549, HepG2 vs NHDF
Procedure: Cells were treated with 5 μM of each compound for 6 h. Fluorescence intensities were determined using SpectraMAX 13;
To analyze the cellular fluorescence levels upon compound treatment, cells were seeded in plates 1 day before treatment with the compounds. Cells were then treated with each compound for the indicated dose or time course. After the experiment, cells were washed with ice-cold PBS, trypsinized, and centrifuged. The cell pellet was re-suspended in 300 μL of PBS and then analyzed using a multiplate reader (SpectraMAX I3x). The results were normalized according to the number of cells.

MCF7/Dox cells [5] = assay: Assessment of mitochondrial membrane potential (CLSM); assay type: cell-based, human; details: 5 μM, 48 h
Procedure: To assess the mitochondrial membrane potential, MCF-7/Dox cells (5×10^3 cells) were seeded in glass-bottomed dishes and treated with 5 μM compound C1, C3, DCA, and/or doxorubicin for 48 h. After incubation, the cells were stained with 2 ml of a PBS solution containing 20 μM Mitoview™ 633 (Biotium, USA) and 100 nM Hoechst® 33342 (ThermoFisher, USA) for 30 min at 37° C. with 5% CO2. Fluorescence was detected using a Zeiss LSM 700 confocal laser scanning microscope (Carl Zeiss).

In the case of `COc1cccc2c1C(=O)c1c(O)c3c(c(O)c1C2=O)C[C@@](O)(C(=O)CO)C[C@@H]3OC1C[C@H](NC(=O)OC(Cc2cn(CCCCCC[P+](c3ccccc3)(c3ccccc3)c3ccccc3)nn2)c2ccc(NC(=O)C(Cl)Cl)cc2)[C@H](O)[C@H](C)O1.[Br-]` (stereo partly drawn) [C1], the “reduction in cell viability” value (MCF7 cell line) is reported as “comparable reduction in cell viability”, the cytotoxic effect (MCF7/Dox cells [1]) is reported as “appreciable cytotoxic effect” and the colony-forming ability (MCF7/Dox cells [2]) is reported as “strong inhibitory effect”. The glucose uptake (MCF7/Dox cells [3]) was “decreased glucose uptake”, the “intracellular ATP levels” value (MCF7/Dox cells [3]) was “lowered intracellular ATP levels” and the intracellular lactate levels (MCF7/Dox cells [3]) was “dose-dependent reduction of intracellular lactate levels”. For the same molecule, the “tumor specificity of Dox accumulation (fluorescence imaging of mice and dissected organs)” value (MCF7 and MCF7/Dox tumors) was “highly tumor-specific accumulation of Dox”, the “tumor cell selectivity of cellular uptake” value [4] was “taken up specifically by cancer cells” and the “decrease in mitochondrial membrane potential Δψm” value (MCF7/Dox cells [5]) was “ca. 96%”.
